Key:
Format in all cases: cell-based
[1] = tested on: TGF-β1-stimulated Smad2 phosphorylation in Mv1Lu cells; experiment: TGF-β1-stimulated Smad2 phosphorylation, quantitative Western blot (P-Smad2/Smad2); details: for time dependence of the effect on TGF-β1-stimulated Smad2 phosphorylation: 20 LM MDC, 40 μM monensin, 20 μM TFP, 100 pM TGF-β1, several time periods; for concentration dependence of the effect on TGF-β1-stimulated Smad2 phosphorylation: several concentrations of the inhibitors, 100 pM TGF-β1 for 30 min
Protocol: (A-I, K) Cells were pretreated with 10 mg/ml β-CD (A, K), 20 LM MDC (B), 40 μM monensin (C), 20 μM TFP (D) and 0.45 M sucrose (K) or several concentrations (as indicated) of β-CD (E), TFP (F), monensin (G), chloroquine (H), dynasore (I), at 37° C. for 1 h. The cells were then stimulated with vehicle only or […] TGF-β1 (A to I) or several concentrations (as indicated) of TGF-β1 (K). After several time periods, as indicated, at 37° C., cell lysates were analysed by 7.5% SDS PAGE followed by Western blot analysis using antibodies to P-Smad2 and Smad2 and chemiluminescence development (a or top) and quantitation by densitometry (b or bottom). The relative level of P-Smad2 was expressed as arbitrary units (A.U.) (A, B, C, D, K) (b). The relative level of P-Smad2 in cells treated with TGF-β alone was taken as 100% of control (E to I, bottom). The data shown is representative of 3 independent experiments. (J) Cells were pretreated with 10 mg/ml β-CD (c,d) at 37° C. for 1 h. The cells were then stimulated with vehicle only (a) or with 100 pM TGF-β (b,d). After 30 min at 37° C. the cells were fixed and subjected to indirect immunofluorescent staining using antibody to P-Smad2. The magnification is 200×. The data shown is representative of 3 independent experiments.
If TGF-β-induced signaling occurs in endosomes, as reported previously^6-15, inhibitors of clathrin-dependent endocytosis would be expected to attenuate TGF-β-stimulated signaling such as Smad2 phosphorylation and nuclear colocalization^4,5. To test this, Mv1Lu cells were pretreated with vehicle only or with clathrin-dependent endocytosis inhibitors at 37° C. for 30 min and then treated with or without 100 pM TGF-β1. After several time periods, the relative levels of P-Smad2 in treated and stimulated cells were analyzed by quantitative Western blot analysis using antibodies to P-Smad2 and Smad2. […] After stimulation of cells with TGF-β1 for 60 min, β-CD, TFP, MDC and monensin enhanced TGF-β1-stimulated Smad2 phosphorylation by ˜1.5-2.5 fold (FIGS. 1Ab, 1Bb, 1Cb, and 1Db). To further characterize the effects of these inhibitors on Smad2 phosphorylation, Mv1Lu cells were pretreated with vehicle only or with several concentrations of the inhibitors at 37° C. for 30 min and then stimulated with 100 pM of TGF-β1. After 30 min at 37° C., cell lysates were subjected to Western blot analysis using antibodies to P-Smad2 and Smad2 followed by quantitation with densitometry. […] To determine the effect of β-CD on TGF-β1-stimulated nuclear localization of P-Smad2, Mv1Lu cells were pretreated with vehicle only or with β-CD (10 mg/ml). After 1 h at 37° C., cells were stimulated with TGF-β1 ([…]) for 30 min. The nuclear localization of P-Smad2 was then analyzed by indirect fluorescent staining.
To define the coated-pit stages that are important in TGF-β1-induced signaling, we treated Mv1Lu cells with hyperosmotic sucrose (0.45 M) or β-CD and examined TGF-β1-stimulated Smad2 phosphorylation in these cells. […] In cells stimulated with 100 pM TGF-β1, hyperosmotic sucrose attenuated Smad2 phosphorylation by ˜60% (FIG. 1Kb). On the other hand, β-CD enhanced TGF-β1-stimulated Smad2 phosphorylation at all concentrations of TGF-β1. It enhanced TGF-β1-stimulated Smad2 phosphorylation by 2-4 fold when compared with the control (treatment without β-CD) (FIGS. 1Ka and 1Kb).

[2] = tested on: TβR-I and SARA at the plasma membrane in Mv1Lu cells; experiment: Co-localization and accumulation of TβR-I and SARA, immunofluorescent microscopy; details: 20 μM TFP, 10 mg/ml β-CD, 40 μM dynasore, 200 μM chloroquine, with 100 pM TGF-β1, 30 min
Protocol: Cells were pretreated with vehicle only or 20 μM TFP, 10 mg/ml β-CD, 40 μM dynasore (Dyn) and 200 μM chloroquine (CQ) at 37° C. for 1 h. Treated cells were then stimulated with and without 100 pM TGF-β1. After 30 min at 37° C., cells were fixed and analyzed by indirect immunofluorescent staining using antibody to TβR-I (panels 1-10) and SARA (panels 11-20), DAPI (nuclear) staining was also performed (panels 21-30). Merged staining is also shown (panels 31-40). Insets indicate the co-localization and accumulation of SARA and TβR-I at the plasma membrane.
TGF-β stimulates Smad2 phosphorylation by inducing association of TβR-I and SARA^6,7 (which serves as an anchor for Smad2), binding of Smad2 to SARA, and subsequent phosphorylation of Smad2 by TβR-I in the TβR-1-SARA-Smad2 complex. If clathrin-dependent endocytosis inhibitors enhance TGF-β-induced signaling (TGF-β-stimulated Smad2 phosphorylation) by increasing accumulation of TβR-I/TβR-II complexes at the coated pits, they should promote co-localization and accumulation of TβR-I and SARA at the plasma membrane. To test this, Mv1Lu cells were stimulated with 100 pM TGF-β1. After 30 min at 37° C., […] analyzed by immunofluorescent microscopy using antibodies to TβR-I and SARA. […] This is consistent with the previous report that TGF-β enhances TGF-β receptor internalization^16.

[3] = tested on: nuclear localization of P-Smad2 in Mv1Lu cells; experiment: Nuclear localization of P-Smad2, indirect immunofluorescent staining; details: β-CD 10 mg/ml 1 h, then TGF-β1 (10 pM) for 30 min
Protocol: (A-I, K) Cells were pretreated with 10 mg/ml β-CD (A, K), 20 LM MDC (B), 40 μM monensin (C), 20 μM TFP (D) and 0.45 M sucrose (K) or several concentrations (as indicated) of β-CD (E), TFP (F), monensin (G), chloroquine (H), dynasore (I), at 37° C. for 1 h. The cells were then stimulated with vehicle only or […] TGF-β1 (A to I) or several concentrations (as indicated) of TGF-β1 (K). After several time periods, as indicated, at 37° C., cell lysates were analysed by 7.5% SDS PAGE followed by Western blot analysis using antibodies to P-Smad2 and Smad2 and chemiluminescence development (a or top) and quantitation by densitometry (b or bottom). The relative level of P-Smad2 was expressed as arbitrary units (A.U.) (A, B, C, D, K) (b). […]
If TGF-β-induced signaling occurs in endosomes, as reported previously^6-15, inhibitors of clathrin-dependent endocytosis would be expected to attenuate TGF-β-stimulated signaling such as Smad2 phosphorylation and nuclear colocalization^4,5. […] After several time periods, the relative levels of P-Smad2 in treated and stimulated cells were analyzed by quantitative Western blot analysis using antibodies to P-Smad2 and Smad2. […] After 30 min at 37° C., cell lysates were subjected to Western blot analysis using antibodies to P-Smad2 and Smad2 followed by quantitation with densitometry. […]

Row | Molecule | time dependence of the effect on TGF-β1-stimulated Smad2 phosphorylation ([1]; 10 mg/ml β-CD) | concentration dependence of the effect on TGF-β1-stimulated Smad2 phosphorylation [1] | co-localization and accumulation of TβR-I and SARA at the plasma membrane, co-treatment with TGF-β1 [2] | enhancement of TGF-β1-stimulated Smad2 phosphorylation compared with the control (treatment without β-CD) ([1]; 10 mg/ml β-CD, all concentrations of TGF-β1) | nuclear localization of P-Smad2 [3] | attenuation of Smad2 phosphorylation ([1]; hyperosmotic sucrose 0.45 M, cells stimulated with 100 pM TGF-β1) | effect on TGF-β1-stimulated Smad2 phosphorylation ([1]; hyperosmotic sucrose 0.45 M, various concentrations of TGF-β1)
1 | CN(C)c1cccc2c(S(=O)(=O)NCCCCCN)cccc12 [MDC, monodansylcadaverine] | enhanced TGF-β1-stimulated Smad2 phosphorylation in a time-dependent manner |  |  |  |  |  | 
2 | CCN(CC)CCCC(C)Nc1ccnc2cc(Cl)ccc12 (stereo not drawn) [chloroquine] |  | enhanced TGF-β1-stimulated Smad2 phosphorylation in a concentration-dependent manner | promoted co-localization and accumulation of TβR-I and SARA at the plasma membrane |  |  |  | 
3 | CN(C)CCCN1c2ccccc2Sc2ccc(C(F)(F)F)cc21 [TFP, triflupromazine] | enhanced TGF-β1-stimulated Smad2 phosphorylation in a time-dependent manner | enhanced TGF-β1-stimulated Smad2 phosphorylation in a concentration-dependent manner | promoted co-localization and accumulation of TβR-I and SARA at the plasma membrane |  |  |  | 
4 | methyl-β-cyclodextrin [β-CD] | enhanced TGF-β1-stimulated Smad2 phosphorylation in a time-dependent manner | enhanced TGF-β1-stimulated Smad2 phosphorylation in a concentration-dependent manner | promoted co-localization and accumulation of TβR-I and SARA at the plasma membrane | 2-4 fold | β-CD and TGF-β1 together promoted nuclear localization of P-Smad2 |  | 
5 | CC[C@@]1([C@@H]2O[C@@H]([C@H]3O[C@@](O)(CO)[C@H](C)C[C@@H]3C)C[C@@H]2C)CC[C@H]([C@]2(C)CC[C@]3(C[C@H](O)[C@@H](C)[C@@H]([C@@H](C)[C@@H](OC)[C@H](C)C(=O)O)O3)O2)O1 [monensin] | enhanced TGF-β1-stimulated Smad2 phosphorylation in a time-dependent manner | enhanced TGF-β1-stimulated Smad2 phosphorylation in a concentration-dependent manner |  |  |  |  | 
6 | OC[C@H]1O[C@@](CO)(O[C@H]2O[C@H](CO)[C@@H](O)[C@H](O)[C@H]2O)[C@@H](O)[C@@H]1O [hyperosmotic sucrose, sucrose] |  |  |  |  |  | ~60% | inhibited TGF-β1-stimulated Smad2 phosphorylation
